According to ChEMBL document CHEMBL3351700, “Synthesis, GluN2B affinity and selectivity of benzo[7]annulen-7-amines” (Bioorg Med Chem, 2014):
pKi: −log10 of the molar value.

Tests used:
Cavia porcellus = species on record: Cavia porcellus; assay: Displacement of [3H]-(+)-MK-801 from N-methyl D-aspartate receptor phencyclidine binding site in guinea pig brain cortex membranes at 1 uM after 150 mins by scintillation counting method; format: cell membranes
[1] = Displacement of [3H]DTG from sigma2 receptor in rat liver membranes after 180 mins by scintillation counting method; format: cell membranes, Membrane
[2] = biological target: Glutamate receptor ionotropic, NMDA 2B (Homo sapiens, UniProt Q05586+Q13224); assay: Displacement of [3H]ifenprodil from human GluN2B expressed in mouse L(tk-) cells co-expressing GluN1a after 120 mins by scintillation counting method; format: cell-based
Glutamate receptor ionotropic, NMDA 2B, sequence (Q13224 whole entry, one chain of several): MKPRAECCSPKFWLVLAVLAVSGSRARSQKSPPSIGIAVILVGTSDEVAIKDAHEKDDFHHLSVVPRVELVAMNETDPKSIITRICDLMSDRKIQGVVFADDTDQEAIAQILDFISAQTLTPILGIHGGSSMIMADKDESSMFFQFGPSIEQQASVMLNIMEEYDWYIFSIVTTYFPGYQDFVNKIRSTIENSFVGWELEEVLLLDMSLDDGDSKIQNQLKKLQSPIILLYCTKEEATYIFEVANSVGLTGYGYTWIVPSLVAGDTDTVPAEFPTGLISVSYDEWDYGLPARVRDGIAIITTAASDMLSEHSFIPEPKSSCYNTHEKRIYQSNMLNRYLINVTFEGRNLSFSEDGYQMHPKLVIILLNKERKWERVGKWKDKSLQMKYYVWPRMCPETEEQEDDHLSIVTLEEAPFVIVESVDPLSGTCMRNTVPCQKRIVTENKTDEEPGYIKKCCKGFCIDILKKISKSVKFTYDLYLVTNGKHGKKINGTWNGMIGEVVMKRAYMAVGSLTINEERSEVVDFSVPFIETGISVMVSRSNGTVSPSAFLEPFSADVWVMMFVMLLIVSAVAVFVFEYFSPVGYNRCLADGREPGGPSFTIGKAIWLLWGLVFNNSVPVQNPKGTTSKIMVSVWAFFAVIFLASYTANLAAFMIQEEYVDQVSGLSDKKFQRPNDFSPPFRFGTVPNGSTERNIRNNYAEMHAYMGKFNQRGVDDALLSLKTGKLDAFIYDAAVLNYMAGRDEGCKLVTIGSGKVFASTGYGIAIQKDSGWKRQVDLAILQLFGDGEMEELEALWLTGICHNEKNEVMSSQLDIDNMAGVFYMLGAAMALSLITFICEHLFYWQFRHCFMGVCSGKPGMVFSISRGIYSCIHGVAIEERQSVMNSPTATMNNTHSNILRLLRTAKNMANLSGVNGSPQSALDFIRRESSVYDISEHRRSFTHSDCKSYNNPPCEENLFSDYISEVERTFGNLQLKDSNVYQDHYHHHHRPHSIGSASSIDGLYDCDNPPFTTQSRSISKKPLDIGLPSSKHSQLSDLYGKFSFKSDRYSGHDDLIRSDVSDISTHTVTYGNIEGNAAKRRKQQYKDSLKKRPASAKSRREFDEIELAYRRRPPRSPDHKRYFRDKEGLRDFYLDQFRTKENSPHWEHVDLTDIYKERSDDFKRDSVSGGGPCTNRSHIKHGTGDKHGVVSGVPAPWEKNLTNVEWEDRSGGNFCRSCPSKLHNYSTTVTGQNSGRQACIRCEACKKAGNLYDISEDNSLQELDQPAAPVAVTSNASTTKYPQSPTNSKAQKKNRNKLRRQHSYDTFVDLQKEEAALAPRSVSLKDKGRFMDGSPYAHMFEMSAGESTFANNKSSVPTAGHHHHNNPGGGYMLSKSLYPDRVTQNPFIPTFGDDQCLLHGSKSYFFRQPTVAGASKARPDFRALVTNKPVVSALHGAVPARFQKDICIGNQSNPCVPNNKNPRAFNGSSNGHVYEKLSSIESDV

[3] = biological target: Sigma non-opioid intracellular receptor 1 (Cavia porcellus, UniProt Q60492); assay: Displacement of [3H](+)-pentazocine from sigma1 receptor in guinea pig brain membranes after 180 mins by scintillation counting method; format: cell membranes, Membrane
Sigma non-opioid intracellular receptor 1, sequence (Q60492 whole entry): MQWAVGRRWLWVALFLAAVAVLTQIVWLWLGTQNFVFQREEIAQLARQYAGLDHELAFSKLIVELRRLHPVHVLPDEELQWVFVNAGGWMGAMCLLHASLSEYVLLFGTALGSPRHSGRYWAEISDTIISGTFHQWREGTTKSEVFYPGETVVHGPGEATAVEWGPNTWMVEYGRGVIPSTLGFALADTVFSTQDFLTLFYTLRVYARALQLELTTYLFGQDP

SMILES | inhibition (Cavia porcellus) [%] | pKi [1] | pKi [2] | pKi [3]
COc1ccc2c(c1)CCC(NCCCc1ccccc1)CC2O (stereo unspecified) | 12 | 8.04 | 7.80 | 6.88
COc1ccc2c(c1)CCC(NCCCc1ccccc1)CC2 (stereo unspecified) | 0 | 7.82 | 8.00 | 7.57
c1ccc(CC2CCN(C3CCc4ccccc4CC3)CC2)cc1 | 30 | 8.27 | 8.54 | 8.24
c1ccc(N2CCN(C3CCc4ccccc4CC3)CC2)cc1 | 5 | 6.70 | 7.92 | 6.74
c1ccc(CCNC2CCc3ccccc3CC2)cc1 | 0 | 6.70 | 7.70 | 7.66
COc1ccc2c(c1)CCN(CCCCc1ccccc1)CC2O (stereo unspecified) | 22 | 6.26 | – | –
c1ccc(CCCCNC2CCc3ccccc3CC2)cc1 | 2 | 7.26 | 7.77 | 6.67
c1ccc(C2CCN(C3CCc4ccccc4CC3)CC2)cc1 | 11 | 7.74 | 8.16 | 7.66
c1ccc(CCCNC2CCc3ccccc3CC2)cc1 | 0 | 7.57 | 7.80 | 6.82
c1ccc(CNC2CCc3ccccc3CC2)cc1 | 16 | 6.69 | 7.24 | 6.97
c1ccc([C@H]2CC[C@H](NC3CCc4ccccc4CC3)CC2)cc1 | 30 | 7.85 | 8.24 | 7.70
c1ccc([C@H]2CC[C@@H](NC3CCc4ccccc4CC3)CC2)cc1 | 43 | 8.52 | 8.64 | 7.85
